Measurements as given in patent US9102621B2, “Acyl sulfonamide compounds” (Pfizer Limited, priority 2010, dated 2015).
Where a name gives a salt, the structure may show the parent alone.

Each compound was assayed against T1, Nav1.7 (or SCN9A) channel (Homo sapiens, UniProt Q15858) (assay: Nav1.7 (hSCN9A) channel block, PatchXpress whole-cell electrophysiology). Details: PatchXpress platform; HEK cells stably transfected with hSCN9A; estimated IC-50 calculated from single point % inhibition at V1/2; read-out: Nav1.7 EIC50.
T1 construct: expressed in transfected cells
Format: cell-based
Protocol: The ability of the compounds of formula (I) to block the Nav1.7 (or SCN9A) channel were measured using the assay described below.
Human Embryonic Kidney (HEK) cells were transfected with an hSCN9A construct using lipofectamine reagent (Invitrogen), using standard techniques. Cells stably expressing the hSCN9A constructs were identified by their resistance to G-418 (400 μg/ml). Clones were screened for expression using the whole-cell voltage-clamp technique.
HEK cells stably transfected with hSCN9A were maintained in DMEM medium supplemented with 10% heat-inactivated fetal bovine serum and 400 μg/ml G-418 in an incubator at 37° C. with a humidified atmosphere of 10% CO2. For HTS, cells were harvested from flasks by trypsinization and replated in an appropriate multi-well plate (typically 96 or 384 wells/plate) such that confluence would be achieved within 24 hours of plating. For electrophysiological studies, cells were removed from the culture flask by brief trypsinization and re-plated at low density onto glass cover slips. Cells were typically used for electrophysiological experiments within 24 to 72 hours after plating.
Cover slips containing HEK cells expressing hSCN9A were placed in a bath on the stage of an inverted microscope and perfused (approximately 1 ml/minutes) with extracellular solution of the following composition: 138 mM NaCl, 2 mM CaCl2, 5.4 mM KCl, 1 mM MgCl2, 10 mM glucose, and 10 mM HEPES, pH 7.4, with NaOH. […] The osmolarity of the extracellular and intracellular solutions was 300 mOsm/kg and 295 mOsm/kg, respectively. All recordings were made at room temperature (22-24° C.) using AXOPATCH 200B amplifiers and PCLAMP software (Axon Instruments, Burlingame, Calif.).
hSCN9A currents in HEK cells were measured using the whole-cell configuration of the patch-clamp technique (Hamill et al., 1981). Uncompensated series resistance was typically 2 to 5 mega ohms and >85% series resistance compensation was routinely achieved. As a result, voltage errors were negligible and no correction was applied. Current records were acquired at 20 to 50 KHz and filtered at 5 to 10 KHz.
HEK cells stably transfected with hSCN9A were viewed under Hoffman contrast optics and placed in front of an array of flow pipes emitting either control or compound-containing extracellular solutions. All compounds were dissolved in dimethyl sulfoxide to make 10 mM stock solutions, which were then diluted into extracellular solution to attain the final concentrations desired. […] The voltage-dependence of inactivation was determined by applying a series of depolarizing prepulses (8 sec long in 10 mV increments) from a negative holding potential. The voltage was then immediately stepped to 0 mV to assess the magnitude of the sodium current. Currents elicited at 0 mV were plotted as a function of prepulse potential to allow estimation of the voltage at which 50% of the channels were inactivated (midpoint of inactivation or V1/2). Compounds were tested for their ability to inhibit hSCN9A sodium channels by activating the channel with a 20 msec voltage step to 0 mV following an 8 second conditioning prepulse to the empirically determined V1/2. Compound effect (% inhibition) was determined by difference in current amplitude before and after application of test compounds. […] Inhibition values <20% and >80% were excluded from the calculation.
Electrophysiological assays were conducted with PatchXpress 7000 hardware and associated software (Molecular Devices Corp). All assay buffers and solutions were identical to those used in conventional whole-cell voltage clamp experiments described above. hSCN9A cells were grown as above to 50%-80% confluency and harvested by trypsinization. Trypsinized cells were washed and resuspended in extracellular buffer at a concentration of 1×10^6 cells/ml. The onboard liquid handling facility of the PatchXpress was used for dispensing cells and application of test compounds. […]

T1 sequence (Q15858 whole entry): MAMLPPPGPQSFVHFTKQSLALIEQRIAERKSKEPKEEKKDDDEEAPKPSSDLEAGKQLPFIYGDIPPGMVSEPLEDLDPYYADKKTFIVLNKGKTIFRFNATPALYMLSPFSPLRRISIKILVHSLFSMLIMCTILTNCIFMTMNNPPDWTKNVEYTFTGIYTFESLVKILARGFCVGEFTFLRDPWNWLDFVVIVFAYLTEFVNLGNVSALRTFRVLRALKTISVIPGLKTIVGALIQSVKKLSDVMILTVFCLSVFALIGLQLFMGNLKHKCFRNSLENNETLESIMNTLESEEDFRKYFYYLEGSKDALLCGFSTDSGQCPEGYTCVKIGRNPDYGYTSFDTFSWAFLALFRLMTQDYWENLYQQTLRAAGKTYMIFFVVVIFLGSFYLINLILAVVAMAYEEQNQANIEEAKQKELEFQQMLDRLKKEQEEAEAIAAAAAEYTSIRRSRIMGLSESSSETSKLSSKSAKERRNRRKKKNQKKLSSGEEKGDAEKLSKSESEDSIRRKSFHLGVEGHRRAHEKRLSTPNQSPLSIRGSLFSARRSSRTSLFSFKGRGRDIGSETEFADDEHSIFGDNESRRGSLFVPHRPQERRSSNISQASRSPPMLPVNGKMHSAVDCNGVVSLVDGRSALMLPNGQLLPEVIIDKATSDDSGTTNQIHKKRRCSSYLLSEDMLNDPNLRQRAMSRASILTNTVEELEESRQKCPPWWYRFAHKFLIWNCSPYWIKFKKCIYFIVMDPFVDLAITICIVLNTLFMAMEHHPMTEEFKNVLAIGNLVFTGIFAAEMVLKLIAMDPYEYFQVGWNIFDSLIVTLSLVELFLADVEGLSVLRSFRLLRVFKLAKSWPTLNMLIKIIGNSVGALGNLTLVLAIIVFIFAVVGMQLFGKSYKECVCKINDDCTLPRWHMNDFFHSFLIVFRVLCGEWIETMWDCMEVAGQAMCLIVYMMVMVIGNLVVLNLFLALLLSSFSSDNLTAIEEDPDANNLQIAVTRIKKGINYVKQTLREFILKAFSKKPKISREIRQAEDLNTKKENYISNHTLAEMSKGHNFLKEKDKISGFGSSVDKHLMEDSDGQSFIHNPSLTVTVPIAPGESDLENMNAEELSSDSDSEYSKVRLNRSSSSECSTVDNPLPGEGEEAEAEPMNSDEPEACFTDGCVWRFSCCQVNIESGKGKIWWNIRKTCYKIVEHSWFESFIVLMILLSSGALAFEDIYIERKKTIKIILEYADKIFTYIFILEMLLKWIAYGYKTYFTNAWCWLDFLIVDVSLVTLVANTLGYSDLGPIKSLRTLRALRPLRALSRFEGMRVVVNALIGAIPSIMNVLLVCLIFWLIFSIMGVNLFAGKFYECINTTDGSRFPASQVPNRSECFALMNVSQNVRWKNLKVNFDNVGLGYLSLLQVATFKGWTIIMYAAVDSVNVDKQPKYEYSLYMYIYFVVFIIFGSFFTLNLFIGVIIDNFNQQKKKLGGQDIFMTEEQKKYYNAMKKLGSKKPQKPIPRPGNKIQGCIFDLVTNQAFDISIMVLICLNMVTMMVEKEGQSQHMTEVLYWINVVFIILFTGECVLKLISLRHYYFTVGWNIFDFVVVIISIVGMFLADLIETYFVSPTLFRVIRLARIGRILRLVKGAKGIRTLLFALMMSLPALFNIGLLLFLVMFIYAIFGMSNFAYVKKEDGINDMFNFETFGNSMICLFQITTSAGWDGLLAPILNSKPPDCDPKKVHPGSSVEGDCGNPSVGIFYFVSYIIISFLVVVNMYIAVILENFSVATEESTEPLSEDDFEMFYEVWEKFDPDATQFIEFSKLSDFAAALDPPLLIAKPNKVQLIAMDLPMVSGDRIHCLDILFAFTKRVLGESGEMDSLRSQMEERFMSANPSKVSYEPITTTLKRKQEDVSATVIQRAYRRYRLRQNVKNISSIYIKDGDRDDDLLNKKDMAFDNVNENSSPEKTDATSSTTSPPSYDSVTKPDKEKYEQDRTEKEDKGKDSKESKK

IC50 [nM] | Structure (SMILES)
25.8 | CS(=O)(=O)NC(=O)c1cc(Cl)c(COc2cnc(OCCC(F)(F)F)c(Cl)c2)cc1F [Example 44, 5-Chloro-4-({[5-chloro-6-(3,3,3-trifluoropropoxy)pyridin-3-yl]oxy}methyl)-2-fluoro-N-(methylsulfonyl)benzamide]
58.2 | CC(C)(F)COc1ncc(OCc2cc(F)c(C(=O)NS(C)(=O)=O)cc2Cl)cc1Cl [Example 45, 5-Chloro-4-({[5-chloro-6-(2-fluoro-2-methylpropoxy)pyridin-3-yl]oxy}methyl)-2-fluoro-N-(methylsulfonyl)benzamide]
18 | CS(=O)(=O)NC(=O)c1cc(Cl)c(COc2cnc(OCC(F)(F)C(F)(F)F)c(Cl)c2)cc1F [Example 46, 5-Chloro-4-({[5-chloro-6-(2,2,3,3,3-pentafluoropropoxy)pyridin-3-yl]oxy}methyl)-2-fluoro-N-(methylsulfonyl)benzamide]
> 3000 | COc1cc(COc2cnc(OC(C)C)c(Cl)c2)ccc1C(=O)NS(C)(=O)=O [Example 48, 4-{[(5-Chloro-6-isopropoxypyridin-3-yl)oxy]methyl}-2-methoxy-N-(methylsulfonyl)benzamide]
9.7 | CC(C)(Oc1ncc(OCc2cc(F)c(C(=O)NS(C)(=O)=O)cc2F)cc1Cl)C(F)(F)F [Example 49, 4-({[5-Chloro-6-(2,2,2-trifluoro-1,1-dimethylethoxy)pyridin-3-yl]oxy}methyl)-2,5-difluoro-N-(methylsulfonyl)benzamide]
> 3000 | CC(C)c1ncc2ncc(COc3cc(F)c(C(=O)NS(C)(=O)=O)cc3Cl)cn12 [Example 50]
6230 | COc1ncc(COc2ccc(C(=O)NS(C)(=O)=O)cc2Cl)cc1Cl [Example 51]
> 3000 | CS(=O)(=O)NC(=O)c1ccc(COc2cccc3cnccc23)cc1 [Example 52]
> 3000 | CS(=O)(=O)NC(=O)c1ccc(COc2ccc3ccncc3c2)cc1 [Example 53]
> 1000 | CS(=O)(=O)NC(=O)c1cc(F)c(COc2cc(C(F)(F)F)c(Cl)cn2)cc1F [Example 55, 4-({[5-Chloro-4-(trifluoromethyl)pyridin-2-yl]oxy}methyl)-2,5-difluoro-N-(methylsulfonyl)benzamide]
6720 | CS(=O)(=O)NC(=O)c1cc(F)c(COc2ccc(C(F)(F)F)cn2)cc1F [Example 56, 2,5-Difluoro-N-(methylsulfonyl)-4-({[5-(trifluoromethyl)pyridin-2-yl]oxy}methyl)benzamide]
153 | CS(=O)(=O)NC(=O)c1cc(Cl)c(COc2cnc(C3CC3)c(C3CC3)c2)cc1F [Example 57, 5-Chloro-4-{[(5,6-dicyclopropylpyridin-3-yl)oxy]methyl}-2-fluoro-N-(methylsulfonyl)benzamide diethylamine salt.]
6850 | CC(C)Oc1ncc(OCc2cc(F)c(C(=O)NS(C)(=O)=O)cc2Cl)cn1 [Example 58, 5-Chloro-2-fluoro-4-{[(2-isopropoxypyrimidin-5-yl)oxy]methyl}-N-(methylsulfonyl)benzamide]
356 | CS(=O)(=O)NC(=O)c1cc(Cl)c(COc2cnc(C3CC3)c(OC(F)F)c2)cc1F [Example 59, 5-Chloro-4-({[6-cyclopropyl-5-(difluoromethoxy)pyridin-3-yl]oxy}methyl)-2-fluoro-N-(methylsulfonyl)benzamide diethylamine salt]
> 3000 | CS(=O)(=O)NC(=O)c1cc(F)c(COc2ncc(Cl)cc2Cl)cc1F [Example 60, 4-{[(3,5-dichloropyridin-2-yl)oxy]methyl}-2,5-difluoro-N-(methylsulfonyl)benzamide]
1840 | CS(=O)(=O)NC(=O)c1cc(F)c(COc2cc(C(F)(F)F)nc(C(F)(F)F)c2)cc1F [Example 61, 4-({[2,6-bis(trifluoromethyl)pyridin-4-yl]oxy}methyl)-2,5-difluoro-N-(methylsulfonyl)benzamide]
3410 | CS(=O)(=O)NC(=O)c1ccc(COc2cc(C(F)(F)F)c(Cl)cn2)cc1 [Example 62, 4-({[5-Chloro-4-(trifluoromethyl)pyridin-2-yl]oxy}methyl)-N-(methylsulfonyl)benzamide]

More lines, now with the values behind:

Structure (SMILES) | IC50 [nM]
[2H]C([2H])([2H])C(Oc1ncc(OCc2cc(F)c(C(=O)NS(C)(=O)=O)cc2Cl)cc1Cl)(C([2H])([2H])[2H])C([2H])([2H])[2H] [Example 32, 4-{[(6-d9-tert-Butoxy-5-chloropyridin-3-yl)oxy]methyl}-5-chloro-2-fluoro-N-(methylsulfonyl)benzamide] | 11
COc1ncc(OCc2cc(F)c(C(=O)NS(C)(=O)=O)cc2Cl)cc1Cl [Example 33, 5-Chloro-4-{[(5-chloro-6-methoxypyridin-3-yl)oxy]methyl}-2-fluoro-N-(methylsulfonyl)benzamide] | 380
[2H]C(C)(C)Oc1ncc(OCc2cc(F)c(C(=O)NS(C)(=O)=O)cc2Cl)cc1Cl [Example 34, 5-Chloro-4-{[(5-chloro-6-d1-isopropoxypyridin-3-yl)oxy]methyl}-2-fluoro-N-(methylsulfonyl)benzamide] | 82.2
CC(C)Oc1ncc(OCc2cc(F)c(C(=O)NS(C)(=O)=O)cc2Cl)cc1Cl [Example 35, 5-Chloro-4-((5-chloro-6-isopropoxypyridin-3-yloxy)methyl)-2-fluoro-N-(methylsulfonyl)benzamide] | 28
CC(C)C(F)(F)c1ncc(OCc2cc(F)c(C(=O)NS(C)(=O)=O)cc2Cl)cc1Cl [Example 36, 5-Chloro-4-({[5-chloro-6-(1,1-difluoro-2-methylpropyl)pyridin-3-yl]oxy}methyl)-2-fluoro-N-(methylsulfonyl)benzamide] | 52.7
CS(=O)(=O)NC(=O)c1cc(Cl)c(COc2cnc(OCC(F)(F)C(F)F)c(Cl)c2)cc1F [Example 37, 5-Chloro-4-({[5-chloro-6-(2,2,3,3-tetrafluoropropoxy)pyridin-3-yl]oxy}methyl)-2-fluoro-N-(methylsulfonyl)benzamide] | 9.1
CC(C)(C)c1ncc(OCc2cc(F)c(C(=O)NS(C)(=O)=O)cc2Cl)cc1Cl [Example 38, 4-{[(6-tert-Butyl-5-chloropyridin-3-yl)oxy]methyl}-5-chloro-2-fluoro-N-(methylsulfonyl)benzamide] | 21.5
[2H]C([2H])([2H])C([2H])(Oc1ncc(OCc2cc(F)c(C(=O)NS(C)(=O)=O)cc2Cl)cc1Cl)C([2H])([2H])[2H] [Example 39, 5-Chloro-4-{[(5-chloro-6-d7-isopropoxypyridin-3-yl)oxy]methyl}-2-fluoro-N-(methylsulfonyl)benzamide] | 39.9
CS(=O)(=O)NC(=O)c1cc(Cl)c(COc2cnc(OC(F)F)c(Cl)c2)cc1F [Example 41, 5-Chloro-4-({[5-chloro-6-(difluoromethoxy)pyridin-3-yl]oxy}methyl)-2-fluoro-N-(methylsulfonyl)benzamide] | 62.3
CS(=O)(=O)NC(=O)c1cc(Cl)c(COc2cnc(C3CC3)c(Cl)c2)cc1F [Example 42, 5-Chloro-4-{[(5-chloro-6-cyclopropylpyridin-3-yl)oxy]methyl}-2-fluoro-N-(methylsulfonyl)benzamide] | 51.8
CS(=O)(=O)NC(=O)c1cc(Cl)c(COc2cnc(OCC(F)(F)F)c(Cl)c2)cc1F [Example 43, 5-Chloro-4-({[5-chloro-6-(2,2,2-trifluoroethoxy)pyridin-3-yl]oxy}methyl)-2-fluoro-N-(methylsulfonyl)benzamide] | 42.5
COc1cc(COc2cnc(OCC(C)C)c(Cl)c2)ccc1C(=O)NS(C)(=O)=O [Example 47, 4-{[(5-Chloro-6-isobutoxypyridin-3-yl)oxy]methyl}-2-methoxy-N-(methylsulfonyl)benzamide] | 4390
